Test results taken from publication PMC8396812, “Aphid Odorant-Binding Protein 9 Is Narrowly Tuned to Linear Alcohols and Aldehydes of Sixteen Carbon Atoms” (Insects, 2021).

What was measured:
ApisOBP9 [1] = molecular target: T1, ApisOBP9 (Acyrthosiphon pisum, UniProt A0A8R1TD77); assay: biochemical; design: competitive displacement of 1-NPN fluorescence from recombinant OBP9, Kd calculated from IC50; settings: read-out: ApisOBP9-WT
T1 construct: pET30, E. coli, N-terminal His-tag removed with enterokinase
T1 sequence (A0A8R1TD77 25-165): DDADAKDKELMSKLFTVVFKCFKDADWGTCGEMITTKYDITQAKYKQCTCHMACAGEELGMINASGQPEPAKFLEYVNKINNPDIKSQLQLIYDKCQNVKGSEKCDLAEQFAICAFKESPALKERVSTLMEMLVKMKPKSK
Protocol: Affinity constants were evaluated by the competitive fluorescent method, using a PerkinElmer FL 6500 spectrofluorometer in a right-angle configuration at room temperature and quartz cuvettes with a 1 cm path. The fluorescent probe N-phenyl-1-naphthylamine (1-NPN) was excited at 337 nm, and emission spectra were recorded between 380 and 450 nm. Binding of 1-NPN was evaluated by adding aliquots of a 1 mM methanol solution to reach final concentrations of 2–16 μM, to a 2 μM solution of the protein in 50 mM Tris-HCl buffer, pH 7.4. Intensity values were recorded at the peak maximum, around 412 nm. The dissociation constant of the complex protein/1-NPN was calculated using Prism software (https://www.graphpad.com/scientific-software/prism/, accessed on 10 February 2021). The affinities of other ligands were evaluated in competitive binding assays by adding aliquots of 1 mM methanol solutions of each ligand to final concentration values of 2 to 16 μM, to a mixture of the protein and 1-NPN, both at the concentration of 2 μM in 50 mM Tris-HCl buffer, pH 7.4. Dissociation constants of ligands were calculated from the corresponding [IC]50 values (the concentration of each ligand halving the initial value of fluorescence), using the equation:KD = [IC]50/1 + [1-NPN]/K1-NPN where [1-NPN] is the concentration of free 1-NPN, and K1-NPN the dissociation constant of the complex protein/1-NPN. All results of the binding experiments are reported in Figure 2 and in Supplementary Figures S1–S4, including those performed on a mutant (Lys37Leu), designed on the results obtained with the wild-type ApisOBP9. First, we measured the affinity of the protein to the fluorescent probe N-phenyl-1-naphthylamine (1-NPN), the most widely used with insect OBPs.

ApisOBP9 [2] = molecular target: T1, ApisOBP9; assay: competitive displacement of 1-NPN fluorescence; type: binding; settings: 2 μM protein, 2 μM 1-NPN, 50 mM Tris-HCl pH 7.4, room temperature

CCCCCCCCCCCCO [1-Dodecanol]
Kd (ApisOBP9 [1]): 3790 nM

CCCCCCCCCCCCCCO [1-Tetradecanol]
Kd (ApisOBP9 [1]): 3410 nM

CCCCCCCCCCCCCCCCO [1-hexadecanol]
Kd (ApisOBP9 [1]): 1900 nM

C=CC(=C)CC/C=C(\C)CCC=C(C)C [(E)-β-farnesene]
KD (ApisOBP9 [2]): in our hands, ApisOBP9 showed some affinity to EBF

CCCC/C=C\CCCCCCOC(C)=O [(Z)-7-Dodecenyl acetate]
Kd (ApisOBP9 [1]): 1380 nM

CCCC/C=C\CCCCCCCC=O [(Z)-9-Tetradecenal]
Kd (ApisOBP9 [1]): 5310 nM

CCCC/C=C\CCCCCCCCCCCC=O [(Z)-13-Octadecenal]
Kd (ApisOBP9 [1]): 2280 nM

CCCCCCCCCC(=O)O [Decanoic acid]
Kd (ApisOBP9 [1]): 14500 nM

CCCCCC/C=C\CCCCCCCC=O [Z9-hexadecenal]
Kd (ApisOBP9 [1]): 1440 nM

CCCC/C=C\CCCCCCCCCCO [Z11-1-hexadecenol]
Kd (ApisOBP9 [1]): 1370 nM

CCCC/C=C\CCCCCCCCCC=O [Z11-hexadecenal]
Kd (ApisOBP9 [1]): 1140 nM

COc1cc(/C=C/C=O)ccc1O [coniferyl aldehyde]
KD (ApisOBP9 [2]): with only coniferyl aldehyde and safranal showing moderate affinities | Kd (ApisOBP9 [1]): 7890 nM

CC1=C(C=O)C(C)(C)CC=C1 [safranal]
KD (ApisOBP9 [2]): with only coniferyl aldehyde and safranal showing moderate affinities | Kd (ApisOBP9 [1]): 11400 nM
